Laboratory results published in publication PMC7667655, “Targeted Covalent Inhibition of Plasmodium FK506 Binding Protein 35” (ACS Medicinal Chemistry Letters, 2020).
Converted amounts (≈) assume the structure as drawn.

Tests used:
[1] = system: NF54 P. falciparum parasites; test: P. falciparum strain NF54 growth-inhibition assay; type: cell-based; conditions: Plasmodium falciparum; luciferase reporter NF54 line, 72 h
Procedure: Figure 6 P. falciparum strain NF54 growth-inhibition assay. […] Proliferation was measured by luminescence after a complete life-cycle and normalized to DMSO (100%) and chloroquine (100 nM, 0%). (B) Structural differences between synthetic ligands and compound IC50s (μM).
Substrate and Extracellular NanoLuc® Inhibitor (Promega, cat. N2160) were diluted at 1:166 and 1:500, respectively, in Opti -MEM I Reduced Serum Media. 25 µL of this solution was added to each well and plate was read immediately using an EnVision Multimode Plate Reader (PerkinElmer). The BRET ratio was calculated using the following formula:
BRET ratio = acceptorsample – acceptorno tracer control donorsample donorno tracer control
NanoBRET Target Engagement Assay (384-well)
HEK293T cells stably expressing either nLuc-FKBP12 or nLuc-FKBP35 were plated at 0.2×10^6 cells/mL in white, clear -bottom 384-well plates (Sigma Aldrich) in Opti -MEM I Reduced Serum Media (ThermoFisher Scientific) using a Mutidrop Combi Reagent Dispenser (ThermoFisher Scientific). Cells were incubated overnight at 37 °C, 5% CO 2. Using a Tecan D300e, the Rap-Gly-BDP tracer was added to cells to 1 µM. Plates were shaken at 700 RPM on an orbital plate shaker and incubated at 37 °C, 5% CO 2 for 10 minutes. Test compounds were added at the indicated concentrations using a Tecan D300e. Plates were shaken at 700 RPM on an orbital plate shaker and incubated at 37 °C, 5% CO 2 for 2 hours. NanoBRET Nano -Glo Substrate and Extracellular NanoLuc® Inhibitor (Promega, cat. N2160) were diluted at 1:166 and 1:500, respectively, in Opti-MEM I Reduced Serum Media. 10 µL of this solution was added to each well and plate was read immediately using an EnVision Multimode Plate Reader (PerkinElmer). The BRET ratio was calculated using the above formula.
Parasite Culture and Inhibition
NF54 P. falciparum parasites constitutively expressing Renilla luciferase (RLuc) and Blasticidin-S deaminase under the PfHsp86 5’ and PfHRP2 3‘ regulatory sequences integrated in the cg6 chromosomal locus 4 were maintained continuous ly in media consisting of human erythrocytes at 2% haematocrit (O+) resuspended in RPMI 1640 (Gibco® 31800022) supplemented with 5% Albumax (Gibco® 11021045; complete medium) and 2.5 µg/mL of Blasticidin (RPI Corp B12150-0.1) in a gas mixture consisting of 5% CO2, 1% O2, and 94% N2 at 37 °C (Trager and Jensen 2005).
Parasitemia was determined every 48 h through microscopic examination of thin blood smears fixed in methanol, stained with 10% Giemsa solution, and sub-cultured to 0.5-1% parasitaemia.
Compound susceptibility assays
(§1) In 96-well round-bottom plates, sorbitol -synchronized cultures of ring-stage NF54 P. falciparum parasites were established in triplicate and treated with varying concentrations of the inhibitors (25-0.0038 μM) serially diluted in complete medium. Parasite proliferation rates were analyzed after 72 h using the Renilla-Glo Luciferase Assay, and luminescence was measured using the GloMax® Discover Microplate Reader. EC 50 values were obtained from corrected dose-response curves using GraphPad Prism (version 5; GraphPad Software). Data represent the mean % luminescence relative to 5% DMSO-treated (vehicle, 100% growth) and 100 nM chloroquine-treated (no growth) controls.
(§2) In black, clear-bottom 96-well plates (No. 3904 Corning Life Sciences), HEK293T cells were plated at 2x10^5 cells/mL in DMEM high glucose, pyruvate media (ThermoFisher Scientific, cat. 11995073) supplemented with 10% FBS and 1% pen -strep (100 μL final volume). Cells were incubated overnight at 37°C, 5% CO2. Using a Tecan D300e digital dispenser, cells were dosed in triplicate […]
concentration, 100 mM stock in DMSO) and Carfilzomib (10 µM to 4.6 nM final concentration, 10 mM stock in DMSO) normalizing DMSO to 0.25%. Cells were then incubated at 37 °C, 5% CO2 for 72 hours. Following incubation, cells were treated with 70 µL CellTiter-Glo® Luminescent Cell […]

FKBP12 [2] = target: T1, FKBP12 (Homo sapiens, UniProt P62942); test: Differential scanning calorimetry, FKBP12; type: binding; conditions: compound 40 µM
T1 construct: 6His-SUMO (N, cleaved yes); made in house; host or cells: E. coli (identical protocol to FBD35, BL21 DE3)

FKBP12 [3] = target: T1, FKBP12; test: Fluorescence polarization competition, FKBP12; type: binding
[4] = Plasma stability assay, human; type: in vitro ADME; conditions: percent remaining, 1 µM, 37 °C, 5 hours
Procedure: as §1, §2
(§3) concentration, 100 mM stock in DMSO) and Carfilzomib (10 µM to 4.6 nM final concentration, 10 mM stock in DMSO) normalizing DMSO to 0.25%. Cells were then incubated at 37 °C, 5% CO2 for 72 hours. Following incubation, cells were treated with 70 µL CellTiter-Glo® Luminescent Cell Viability Assay Reagent (Promega, cat. G7570) and incubated in the dark at room temperature for 30 minutes. Plates were read using an EnVision Multimode Plate Reader (PerkinElmer). Cell viability data was normalized to DMSO controls and analyzed in GraphPad Prism 8 by fitting the data to “[Inhibitor] vs. normalized response – variable slope” model to obtain the curves.
(§4) Each compound was prepared in duplicate at 1 µM final concentration (0.2% DMSO) in human or mouse plasma (Aldrich). Samples were incubated at 37 °C for 5 hours with mixing at 350 rpm on an orbital shaker. Aliquots of each sample were taken at time zero and following 5 hours. Each sample was quenched by adding acetonitrile in a 3:1 ratio and further diluting with 50 µl of PBS.
(§5) After quenching, samples were centrifuged to pellet precipitated partic ulates and an aliquot of supernatant was diluted 1:1 with water. The resulting solution was analyzed by UPLC -MS/MS with compounds detected by MRM detection on a triple quadrupole mass spectrometer. The ratio of compound peak areas at 0 and 5 hours were use d to calculate the percent remaining.

[5] = target: T2, FBD35 (PfFKBP35 binding domain) (Plasmodium falciparum, UniProt Q8I4V8); test: Differential scanning calorimetry, FBD35; conditions: read-out: FBD35 ΔTM
T2 construct: FKBP35 Q5 -A128; 6His-SUMO (N, cleaved yes); made in house; host or cells: E. coli BL21 DE3

[6] = Plasma stability assay, mouse; type: in vitro ADME; conditions: percent remaining, 1 µM, 37 °C, 5 hours
Procedure: as §1, §2, §3, §4, §5

nLuc-tagged FKBP12 = target: T3, nLuc-tagged FKBP12 (Homo sapiens, UniProt P62942); test: NanoBRET cellular target engagement, nLuc-FKBP12; type: cell-based
T3 construct: full length Plasmodium falciparum FKBP35 and human FKBP12 DNA were; expressed in transfected cells

[7] = target: T4, nLuc-tagged full length PfFKBP35 (Plasmodium falciparum, UniProt Q8I4V8); test: NanoBRET cellular target engagement, nLuc-FKBP35; type: cell-based
T4 construct: nanoluciferase-tagged (nLuc) full length PfFKBP35 or nLuc-tagged FKBP12; expressed in transfected cells

PBS solubility = conditions: pH 7.4

T3 sequence (P62942 whole entry): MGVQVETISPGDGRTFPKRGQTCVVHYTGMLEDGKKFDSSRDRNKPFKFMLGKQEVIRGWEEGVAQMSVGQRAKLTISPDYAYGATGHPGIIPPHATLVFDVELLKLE
T1 sequence (P62942 whole entry): as above
T2 sequence (Q8I4V8 5-128): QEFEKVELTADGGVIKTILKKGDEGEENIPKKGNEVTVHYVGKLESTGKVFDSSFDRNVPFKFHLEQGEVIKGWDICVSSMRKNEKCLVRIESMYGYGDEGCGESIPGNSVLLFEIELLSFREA
T4 sequence (Q8I4V8 whole entry): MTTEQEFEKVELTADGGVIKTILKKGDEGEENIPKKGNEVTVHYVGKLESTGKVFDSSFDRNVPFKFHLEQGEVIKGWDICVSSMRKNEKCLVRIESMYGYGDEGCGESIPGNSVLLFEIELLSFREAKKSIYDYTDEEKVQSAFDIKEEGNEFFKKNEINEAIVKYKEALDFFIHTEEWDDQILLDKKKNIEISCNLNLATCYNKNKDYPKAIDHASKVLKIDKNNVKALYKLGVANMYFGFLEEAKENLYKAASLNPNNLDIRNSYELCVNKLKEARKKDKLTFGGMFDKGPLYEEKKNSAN

## CCC(=O)Nc1cccc([C@@H](CCc2ccc(OC)c(OC)c2)OC(=O)[C@@H]2CCCCN2C(=O)C(=O)C(C)(C)CC)c1 [1b]
[1]
  IC50: 1900 nM
FKBP12 [2]
  ΔTm at 40 µM: 6.8 °C
FKBP12 [3]
  IC50: 58 nM
[4]
  Plasma Stability (human): 90%
[5]
  ΔTm at 40 µM: 2.8 °C
[6]
  Plasma Stability (mouse): 18%
nLuc-tagged FKBP12
  IC50: 313 nM
[7]
  IC50: 876 nM

## C=CC(=O)Nc1cccc([C@@H](CCc2ccc(OC)c(OC)c2)OC(=O)[C@@H]2CCCCN2C(=O)C(=O)C(C)(C)CC)c1 [1a]
[1]
  IC50: 1400 nM
FKBP12 [2]
  ΔTm at 40 µM: 5.6 °C
FKBP12 [3]
  IC50: 132 nM
[4]
  Plasma Stability (human): 92%
[5]
  ΔTm at 40 µM: 13.4 °C
[6]
  Plasma Stability (mouse): 48%
nLuc-tagged FKBP12
  IC50: 481 nM
[7]
  IC50: 1230 nM
PBS solubility
  solubility: 0.31 µM (≈ 0.179 µg/mL)

## C=CC(=O)Nc1ccccc1[C@@H](CCc1ccc(OC)c(OC)c1)OC(=O)[C@@H]1CCCCN1C(=O)C(=O)C(C)(C)CC [1c]
[1]
  IC50: 1900 nM
FKBP12 [2]
  ΔTm at 40 µM: 3.2 °C
FKBP12 [3]
  IC50: 423 nM
[4]
  Plasma Stability (human): 62%
[5]
  ΔTm at 40 µM: 9.6 °C
[6]
  Plasma Stability (mouse): 31%
PBS solubility
  solubility: 3.5 µM (≈ 2.03 µg/mL)

## C=CC(=O)OCC(C)(C)C(=O)C(=O)N1CCCC[C@H]1C(=O)O[C@H](CCc1ccc(OC)c(OC)c1)c1ccccc1 [2c]
[1]
  IC50: 13000 nM
FKBP12 [2]
  ΔTm at 40 µM: 5.2 °C
FKBP12 [3]
  IC50: 166 nM
[4]
  Plasma Stability (human): 0%
[5]
  ΔTm at 40 µM: 14.5 °C
[6]
  Plasma Stability (mouse): 0%
nLuc-tagged FKBP12
  IC50: 601 nM
[7]
  IC50: 854 nM
PBS solubility
  solubility: < 0.1 µM
